In data set [1] the test system is AAMU-Ab. Kind of data set: Competitive antigen ELISA, cross-reactivity of AAMU-Ab. The conditions noted are these: 0 = absence of inhibition or inhibition no higher than 40% at highest concentration tested (5 × 10^−3 M). The data set is classed as binding, rabbit. The protocol:
(§1) Buffers and water without additives are filtered through millipore filters and kept for 1 week. BSA, antibodies, Tween™ 20 and horse radish peroxidase conjugates are added to these buffers and water just prior to use. Urine samples are usually collected 4 hours after drinking a cup of coffee (instant or brewed with approximately 100 mg of caffeine per cup) and stored at −80° C. The urine samples are diluted 10 times with sodium phosphate buffer (620 mosm, pH 7.50) and are subsequently diluted with water to give concentrations of AAMU and 1X no higher than 3×10^−6 M in the ELISA. All the pipettings are done with an eight-channel pipette, except those of the antibody and sample solutions. Starting with the last well, 100 μL of a carbonate buffer (100 mM, pH 9.6) containing 2.5 μg mL^−1 antibodies are added to each well. After 90 min. at room temperature, the wells are washed three times with […] of TPB: isotonic sodium phosphate buffer (310 mosm, pH 7.50) containing 0.05% Tween™ 20.
(§2) After the initial wash, unoccupied sites are blocked by incubation for 90 min. at room temperature with 100 μL TBP containing 3% BSA. The wells are washed four times with 100 μL TPB. […] The microplate is gently shaken with an orbital shaker at room temperature for 3-4 hours. The wells are washed three times with 100 μL TPB containing 1% BSA and three times with water containing 0.05% Tween™20. To the washed plate is added 150 μL of a substrate buffer composed of citric acid (25 mM) and sodium phosphate dibasic buffer (50 mM, pH 5.0) containing 0.06% hydrogen peroxide and 0.04% o-phenylenediamine hydrochloride.
(§3) Buffers and water without additives were filtered through millipore filters and kept for 1 week. BSA, antibodies, Tween™20 and horse radish peroxidase conjugates were added to these buffers and water just prior to use. Urine samples were usually collected 4 hours after drinking a cup of coffee (instant or brewed with approximately 100 mg of caffeine per cup) and stored at −80° C. They were diluted 10 times with sodium phosphate buffer (620 mosm, pH 7.50) and were subsequently diluted with water to give concentrations of AAMU and 1X no higher than 3×10^−6 M in the ELISA. All the pipettings were done with an eight-channel pipette, except those of the antibody and sample solutions. Starting with the last well, 100 μL of a carbonate buffer (100 mM, pH 9.6) containing 2.5 μg mL^−1 antibodies was pipetted. After 90 min. at room temperature, the wells were washed three times with 100 μL of TPB: isotonic sodium phosphate buffer (310 mosm, pH 7.50) containing 0.05% Tween™ 20.
(§4) After the initial wash, unoccupied sites were blocked by incubation for 90 min. at room temperature with 100 μL TBP containing 3% BSA. The wells were washed four times with 100 μL TPB. […] The microplate was gently shaken with an orbital shaker at room temperature for 3-4 hours. The wells were washed three times with 100 μL with TPB containing 1% BSA and three times with water containing 0.05% Tween™ 20. To the washed plate was added 150 μL of a substrate buffer composed of citric acid (25 mM) and sodium phosphate dibasic buffer (50 mM, pH 5.0) containing 0.06% hydrogen peroxide and 0.04% o-phenylenediamine hydrochloride. After 20 min. at room temperature with shaking, the reaction was stopped with 50 μL of 2.5 N HCl.
(§5) The cross reactivities of AAMU-Ab and 1X-Ab were tested using a wide variety of caffeine metabolites and structural analogs (Table 2 below).

Data set [2] concerns 1X-Ab. Briefly: Competitive antigen ELISA, cross-reactivity of 1X-Ab. In kind it is binding, rabbit. To be noted: 0 = absence of inhibition or inhibition no higher than 40% at highest concentration tested (5 × 10^−3 M). The procedure:
as §1, §2, §3, §4, §5
On the technique in general: ELISA stands for enzyme-linked immunosorbent assay.

For data set [3] the following is noted: cited from earlier work.

The structures appear in SMILES notation. Where two headings read alike, the source gives them in different places. Marks after values point to notes of the source that are not given here.

In the case of `Nc1nc2nc[nH]c2c(=O)[nH]1` [Guanine], the “% Cross-Reaction AAMU-Ab” value in data set [1] worked out at 0%. The “% Cross-Reaction 1X-Ab” value in data set [2] is on record as 0%.

As for `Cn1c(=O)c2c(ncn2C)n(C)c1=O` [1,3,7-Trimethyl Xanthine (Caffeine), 1,3,7-Trimethyl Xanthine], the “% Cross-Reaction AAMU-Ab” value in data set [1] is given as 0%. In addition, the “% Cross-Reaction 1X-Ab” value in data set [2] was found to be 0%.

With `Nc1ccc(S(=O)(=O)c2ccc(N)cc2)cc1` [dapsone], the “adverse reactions to dapsone” value was 17% in data set [3] (fast acetylators) and 46% in data set [3] (slow acetylators).

As for `O=c1[nH]c(=O)c2[nH]cnc2[nH]1` [Xanthine], in data set [1], the “% Cross-Reaction AAMU-Ab” value is recorded as 0^a %. Moreover, the “% Cross-Reaction 1X-Ab” value in data set [2] is 0%.

Regarding `Cn1cnc2c1c(=O)[nH]c(=O)n2C` [3,7-Dimethyl Xanthine (Theobromine), 3,7-Dimethyl Xanthine], the “% Cross-Reaction AAMU-Ab” value in data set [1] is recorded as 0%. Moreover, in data set [2], the “% Cross-Reaction 1X-Ab” value is on record as 0%.

In the case of `Cn1c(=O)[nH]c2[nH]c(=O)[nH]c2c1=O` [1-Methyluric acid], in data set [1], the “% Cross-Reaction AAMU-Ab” value is 0%. In data set [2], the “% Cross-Reaction 1X-Ab” value turned out to be 11%.

With `CC(=O)Nc1c(N)[nH]c(=O)[nH]c1=O` [5-Acetamino-6-amino-uracil], the “% Cross-Reaction AAMU-Ab” value in data set [1] stood at 0.6%. The “% Cross-Reaction 1X-Ab” value in data set [2] was determined as 0%.

Consider `Cc1nc2[nH]c(=O)[nH]c(=O)c2[nH]1` [8-Methyl Xanthine], for which, in data set [1], the “% Cross-Reaction AAMU-Ab” value was 0%. For the same compound, the “% Cross-Reaction 1X-Ab” value in data set [2] is reported as 0%.

As to `O=c1[nH]cnc2nc[nH]c12` [Hypoxanthine], the “% Cross-Reaction AAMU-Ab” value in data set [1] is listed as 0%. Moreover, in data set [2], the “% Cross-Reaction 1X-Ab” value worked out at 0%.

Take `Cn1c(=O)[nH]c2ncn(C)c2c1=O` [1,7-Dimethyl Xanthine (Paraxanthine), 1,7-Dimethyl Xanthine]: in data set [1], the “% Cross-Reaction AAMU-Ab” value stood at 0%. Also, the “% Cross-Reaction 1X-Ab” value in data set [2] came to 0.5%.

`O=c1cc[nH]c(=O)[nH]1` [Uracil]: the “% Cross-Reaction AAMU-Ab” value in data set [1] worked out at 0%. For the same compound, the “% Cross-Reaction 1X-Ab” value in data set [2] is given as 0%.

As for `CC(=O)Nc1c(N)n(C)c(=O)[nH]c1=O` [5-Acetamino-6-amino-1-methyluracil], in data set [1], the “% Cross-Reaction AAMU-Ab” value was found to be 100%. The “% Cross-Reaction 1X-Ab” value in data set [2] amounted to 0%.

In the case of `CC(=O)Nc1c(N)n(C)c(=O)n(C)c1=O` [5-Acetamino-6-amino-1,3-dimethyluracil], in data set [1], the “% Cross-Reaction AAMU-Ab” value is reported as 0%. In addition, the “% Cross-Reaction 1X-Ab” value in data set [2] is 0%.

`Cn1c(=O)[nH]c2nc[nH]c2c1=O` [1-Methyl Xanthine (1X), 1-Methyl Xanthine]: the “% Cross-Reaction AAMU-Ab” value in data set [1] was 0%. Moreover, the “% Cross-Reaction 1X-Ab” value in data set [2] was 100%.

Consider `Cn1c(=O)c2[nH]cnc2n(C)c1=O` [1,3-Dimethyl Xanthine (Theophylline), 1,3-Dimethyl Xanthine], for which the “% Cross-Reaction AAMU-Ab” value in data set [1] is on record as 0%. The “% Cross-Reaction 1X-Ab” value in data set [2] is listed as 0.2%.

With `Cn1c(=O)[nH]c(=O)c2[nH]cnc21` [3-Methyl Xanthine], the “% Cross-Reaction AAMU-Ab” value in data set [1] came out at 0%. Further, the “% Cross-Reaction 1X-Ab” value in data set [2] amounted to 0%.

Take `Cn1cnc2[nH]c(=O)[nH]c(=O)c21` [7-Methyl Xanthine]: in data set [1], the “% Cross-Reaction AAMU-Ab” value worked out at 0%. Moreover, the “% Cross-Reaction 1X-Ab” value in data set [2] is 0%.

Regarding `O=c1[nH]c(=O)c2[nH]c(=O)[nH]c2[nH]1` [Uric acid], the “% Cross-Reaction AAMU-Ab” value in data set [1] is recorded as 0%. In addition, the “% Cross-Reaction 1X-Ab” value in data set [2] worked out at 0%.

On to `Cn1c(=O)[nH]c2[nH]c(=O)n(C)c2c1=O` [1,7-Dimethyluric acid], for which the “% Cross-Reaction AAMU-Ab” value in data set [1] was 0%. For the same compound, the “% Cross-Reaction 1X-Ab” value in data set [2] came to 0%.

The record behind these values is patent publication US20030124636A1, “Individualization of therapy with antiarrhythmics” (McGill University, priority 2001, published 2003).
